From paper PMC8356711 (Research in Pharmaceutical Sciences, 2021)
“Also recorded” adds a separate entry of the source.

Target: T1, mushroom tyrosinase (Agaricus bisporus, UniProt C7FF04)
Experiment: not given
Conditions: Lineweaver-Burk plot, L-DOPA substrate

T1 sequence (C7FF04 1-392): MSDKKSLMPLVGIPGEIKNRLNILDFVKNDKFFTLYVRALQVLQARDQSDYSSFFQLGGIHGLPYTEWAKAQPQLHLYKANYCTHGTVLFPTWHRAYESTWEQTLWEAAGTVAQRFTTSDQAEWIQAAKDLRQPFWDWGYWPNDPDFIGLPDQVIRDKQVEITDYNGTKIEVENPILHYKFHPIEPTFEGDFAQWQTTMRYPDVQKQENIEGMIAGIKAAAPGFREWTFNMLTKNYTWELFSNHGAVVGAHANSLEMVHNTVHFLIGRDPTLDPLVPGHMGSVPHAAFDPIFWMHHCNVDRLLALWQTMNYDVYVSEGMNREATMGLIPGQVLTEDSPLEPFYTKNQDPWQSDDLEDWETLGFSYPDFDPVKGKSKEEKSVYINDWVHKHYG

Row | Structure (SMILES) | inhibition type
1 | COc1cc(/C=C2\CCc3cc(O)ccc3C2=O)cc(OC)c1OC [C2, (E) - 6-hydroxy - 2-(3,4,5-trimethoxy-benzylidene)-3,4-dihydronaphthalen-1(2H)-one] | competitively; also recorded: competitive tyrosinase inhibitor

Target: T1, mushroom tyrosinase
Experiment: biochemical
Conditions: not given

Row | IC50 | Structure (SMILES)
2 | 17.6 ± 1.1 µM | COc1ccc(/C=C2\CCc3cc(O)ccc3C2=O)cc1 [C1, (E)-6-hydroxy-2-(4-methoxybenzylidene)-3,4-dihydronaphthalen-1(2H)-one]
3 | 8.8 ± 1.8 µM | COc1cc(/C=C2\CCc3cc(O)ccc3C2=O)cc(OC)c1OC [C2, (E) - 6-hydroxy - 2-(3,4,5-trimethoxy-benzylidene)-3,4-dihydronaphthalen-1(2H)-one]
4 | 48.6 ± 2.9 µM | O=C1/C(=C/c2ccc(O)cc2)CCc2cc(O)ccc21 [C5, (E)-6-hydroxy-2-(4-hydroxybenzylidene)-3,4-dihydronaphthalen-1(2H)-one]
5 | 17.6 ± 2.4 µM | COc1ccc(/C=C2\CCc3cc(O)ccc3C2=O)cc1OC [C6, (E)-2-(3,4-dimethoxybenzylidene)-6-hydroxy-3,4-dihydronaphthalen-1(2H)-one]
6 | 22.4 ± 3.1 µM | O=C1/C(=C/c2ccc(Cl)cc2)CCc2cc(O)ccc21 [C7, (E)-2-(4-chlorobenzylidene)-6-hydroxy-3,4-dihydronaphthalen-1(2H)-one]
7 | 11.1 ± 2.5 µM | COc1ccccc1/C=C1\CCc2cc(O)ccc2C1=O [C3, (E)-6-hydroxy-2-(2-methoxybenzylidene)-3,4-dihydronaphthalen-1(2H)-one]
8 | > 50 µM | COc1cc(/C=C2\CCc3cc(O)ccc3C2=O)cc(OC)c1O [C9, (E)-6-hydroxy-2-(4-hydroxy-3,5-dimethoxy-benzylidene)-3,4-dihydronaphthalen-1(2H)-one]
9 | 21.4 ± 3.1 µM | CCOc1cc(/C=C2\CCc3cc(O)ccc3C2=O)ccc1O [C4, (E)-2-(3-ethoxy-4-hydroxybenzylidene)-6-hydroxy-3,4-dihydronaphthalen-1(2H)-one]
